Measured values taken from US7652047B2, “Phenylamino isothiazole carboxamidines as MEK inhibitors” (Ardea Biosciences, Inc., priority 2005, dated 2010).

Biological target: T1, MEK1^CA (human GST-MEK1, constitutively active, Ser218Asp and Ser222Asp) (Homo sapiens, UniProt Q02750, S218D/S222D)
T1 construct: GST; made in house; host or cells: Escherichia coli
Assay: MEK1 enzymatic activity assay (MEK1^CA / ERK2 / MBP, [γ-33P]ATP incorporation)
Type: biochemical
Details: Table 1, compounds of formula I; read-out: Avg IC50
Procedure, shortened: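 Cascade assay: 25 µl reactions with 0.002 nmol E. coli-expressed GST-MEK1 S218D/S222D, 0.02 nmol His-tagged mouse ERK2, 0.25 nmol MBP, 0.25 nmol unlabeled ATP and 0.1 µCi [γ-33P]ATP. Compound preincubated 30 min at ambient temperature with MEK1/ERK2; stopped with TCA, 33P-labelled protein filter-captured and scintillation-counted.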

T1 sequence (Q02750 whole entry S218D/S222D): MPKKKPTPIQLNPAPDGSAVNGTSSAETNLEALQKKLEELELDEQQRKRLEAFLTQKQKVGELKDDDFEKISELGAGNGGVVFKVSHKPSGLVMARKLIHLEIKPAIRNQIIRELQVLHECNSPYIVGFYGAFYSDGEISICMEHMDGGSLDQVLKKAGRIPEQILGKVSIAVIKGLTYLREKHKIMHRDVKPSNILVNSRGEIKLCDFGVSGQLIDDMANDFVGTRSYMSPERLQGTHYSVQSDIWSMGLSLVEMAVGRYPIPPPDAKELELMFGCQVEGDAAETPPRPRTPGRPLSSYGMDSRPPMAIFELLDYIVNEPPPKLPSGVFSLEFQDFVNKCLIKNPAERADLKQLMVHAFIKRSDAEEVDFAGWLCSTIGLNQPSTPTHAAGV

SMILES	IC50
CC(CO)NC(=N)c1c(O)nsc1Nc1ccc(Oc2cc(Cl)ccc2Cl)nc1 (stereo not shown) [compound 434]	1 to 100 nM
CC(CO)NC(=N)c1c(O)nsc1Nc1ccccc1Oc1ccccc1 (stereo not shown) [compound 439]	> 500 nM
N=C(NCC1CCCCC1)c1c(O)nsc1Nc1ccc(Oc2cc(Cl)ccc2Cl)cc1 [compound 441]	1 to 100 nM
CN(C)CCNC(=N)c1c(O)nsc1Nc1ccc(Oc2cc(Cl)ccc2Cl)cc1 [compound 443]	1 to 100 nM
N=C(NCc1ccccn1)c1c(O)nsc1Nc1ccc(Oc2cc(Cl)ccc2Cl)cc1 [compound 448]	1 to 100 nM
N=C(NN1CCCCC1)c1c(O)nsc1Nc1ccc(Oc2cc(Cl)ccc2Cl)cc1 [compound 449]	1 to 100 nM
N=C(NO)c1c(O)nsc1Nc1ccc(Oc2cc(Cl)ccc2Cl)cc1 [compound 450]	1 to 100 nM
CC(C)NC(=N)c1c(O)nsc1Nc1ccccc1Oc1ccccc1 [compound 456]	100 to 500 nM
Cc1cc(Oc2cc(F)cc(F)c2)ccc1Nc1snc(O)c1C(=N)NC(C)CO (stereo not shown) [compound 458]	1 to 100 nM
Cc1cc(Oc2ccc(F)c(F)c2)ccc1Nc1snc(O)c1C(=N)NC(C)C [compound 459]	1 to 100 nM
Cc1cc(Oc2cc(Cl)ccc2Cl)ccc1Nc1snc(O)c1C(=N)NC(C)C [compound 460]	1 to 100 nM
Cc1cc(Oc2cc(F)cc(F)c2)ccc1Nc1snc(O)c1C(=N)NO [compound 465]	100 to 500 nM
Cc1cc(Oc2cc(F)cc(F)c2)ccc1Nc1snc(O)c1C(=N)NCC(O)CO (stereo not shown) [compound 466]	1 to 100 nM
CCC(CO)NC(=N)c1c(O)nsc1Nc1ccc(Oc2cc(F)cc(F)c2)cc1C (stereo not shown) [compound 468]	1 to 100 nM
CC[C@H](CO)NC(=N)c1c(O)nsc1Nc1ccc(Oc2cc(F)cc(F)c2)cc1C [compound 469]	1 to 100 nM
CC[C@H](CO)NC(=N)c1c(O)nsc1Nc1ccc(Oc2cccc(C(F)(F)F)c2)cc1C [compound 474]	1 to 100 nM

SMILES	IC50
CC(C)NC(=N)c1c(O)nsc1Nc1cc(F)c(Oc2cc(Cl)ccc2Cl)cc1F [compound 475]	1 to 100 nM
CC(CO)NC(=N)c1c(O)nsc1Nc1cc(F)c(Oc2cc(Cl)ccc2Cl)cc1F (stereo not shown) [compound 476]	1 to 100 nM
N=C(NCC(O)CO)c1c(O)nsc1Nc1cc(F)c(Oc2cc(Cl)ccc2Cl)cc1F (stereo not shown) [compound 477]	1 to 100 nM
COC(=O)c1cccc(Nc2snc(O)c2C(=N)NC(C)CO)c1C (stereo not shown) [compound 490]	100 to 500 nM
CC(CO)NC(=N)c1c(O)nsc1Nc1ccc(Oc2ccc(S(C)(=O)=O)cc2)cc1 (stereo not shown) [compound 491]	> 500 nM
COC(=O)c1cccc(Nc2snc(O)c2C(=N)NCC(C)O)c1C (stereo not shown) [compound 495]	> 500 nM
CCOC(=O)c1cccc(Nc2snc(O)c2C(=N)NCC(C)O)c1 (stereo not shown) [compound 496]	> 500 nM
COC(=O)c1cccc(Nc2snc(O)c2C(=N)NCC(O)O)c1C [compound 499]	100 to 500 nM
Cc1cc(Oc2cccc(F)c2F)ccc1Nc1snc(O)c1C(=N)NO [compound 500]	1 to 100 nM
COCC(C)NC(=N)c1c(O)nsc1Nc1ccc(Oc2cccc(F)c2F)cc1C (stereo not shown) [compound 502]	1 to 100 nM
Cc1cc(Oc2cccc(F)c2F)ccc1Nc1snc(O)c1C(=N)NC(CO)C(C)C (stereo not shown) [compound 503]	100 to 500 nM
COCCNC(=N)c1c(O)nsc1Nc1ccc(Oc2cccc(F)c2F)cc1C [compound 505]	1 to 100 nM
CC[C@@H](CO)NC(=N)c1c(O)nsc1Nc1ccc(Oc2cccc(C(F)(F)F)c2)cc1C [compound 506]	100 to 500 nM
CC(O)CNC(=N)c1c(O)nsc1Nc1ccc(Oc2ccccc2C(=O)NCC(C)O)cc1 (stereo not shown) [compound 507]	> 500 nM
N=C(NCC(O)CO)c1c(O)nsc1Nc1ccc(Oc2ccccc2C(=O)NCC(O)CO)cc1 (stereo not shown) [compound 508]	> 500 nM

Other lines, results leading:

IC50	SMILES
1 to 100 nM	CC(CO)NC(=N)c1c(O)nsc1Nc1ccc(Oc2cccc(C(F)(F)F)c2)nc1 (stereo not shown) [compound 433]
1 to 100 nM	N=C(NN1CCCCC1)c1c(O)nsc1Nc1ccc(Oc2cc(F)cc(F)c2)cc1 [compound 435]
100 to 500 nM	N=C(NN1CCOCC1)c1c(O)nsc1Nc1ccc(Oc2cc(F)cc(F)c2)cc1 [compound 436]
1 to 100 nM	Cc1cc(Oc2cccc(C(F)(F)F)c2)ccc1Nc1snc(O)c1C(=N)NC(C)C [compound 437]
1 to 100 nM	Cc1cc(Oc2cccc(C(F)(F)F)c2)ccc1Nc1snc(O)c1C(=N)NC(C)CO (stereo not shown) [compound 438]
1 to 100 nM	N=C(NCc1ccccc1)c1c(O)nsc1Nc1ccc(Oc2cc(Cl)ccc2Cl)cc1 [compound 454]
1 to 100 nM	CC(C)N(O)C(=N)c1c(O)nsc1Nc1ccc(Oc2cc(Cl)ccc2Cl)cc1 [compound 455]
1 to 100 nM	Cc1cc(Oc2cc(F)cc(F)c2)ccc1Nc1snc(O)c1C(=N)NC(C)C [compound 457]
1 to 100 nM	Cc1cc(Oc2cc(Cl)ccc2Cl)ccc1Nc1snc(O)c1C(=N)NC(C)CO (stereo not shown) [compound 461]
100 to 500 nM	Cc1cc(Oc2ccc(F)cc2Cl)ccc1Nc1snc(O)c1C(=N)N(O)C(C)C [compound 462]
1 to 100 nM	Cc1cc(Oc2ccc(F)cc2Cl)ccc1Nc1snc(O)c1C(=N)N(O)Cc1ccccc1 [compound 463]
1 to 100 nM	Cc1cc(Oc2cccc(F)c2F)ccc1Nc1snc(O)c1C(=N)NC(C)CO (stereo not shown) [compound 464]
1 to 100 nM	COCC(C)NC(=N)c1c(O)nsc1Nc1ccc(Oc2cc(F)cc(F)c2)cc1C (stereo not shown) [compound 467]
1 to 100 nM	COCCNC(=N)c1c(O)nsc1Nc1ccc(Oc2cc(F)cc(F)c2)cc1C [compound 470]
> 500 nM	Cc1cc(Oc2cccc(C(F)(F)F)c2)ccc1Nc1snc(O)c1C(=N)NO [compound 471]
1 to 100 nM	Cc1cc(Oc2cccc(C(F)(F)F)c2)ccc1Nc1snc(O)c1C(=N)NCC(O)CO (stereo not shown) [compound 472]
1 to 100 nM	CCC(CO)NC(=N)c1c(O)nsc1Nc1ccc(Oc2cccc(C(F)(F)F)c2)cc1C (stereo not shown) [compound 473]
1 to 100 nM	CC(O)CNC(=N)c1c(O)nsc1Nc1cc(F)c(Oc2cc(Cl)ccc2Cl)cc1F (stereo not shown) [compound 478]

IC50	SMILES
> 500 nM	COC(=O)c1cccc(Nc2snc(O)c2C(=N)NC(C)C)c1C [compound 479]
100 to 500 nM	CCOC(=O)c1ccc(Oc2ccc(Nc3snc(O)c3C(=N)NC(C)C)cc2)cc1 [compound 485]
> 500 nM	CC(C)NC(=N)c1c(O)nsc1Nc1ccc(Oc2ccc(S(C)(=O)=O)cc2)cc1 [compound 486]
1 to 100 nM	COC(=O)c1ccccc1Oc1ccc(Nc2snc(O)c2C(=N)NC(C)C)cc1 [compound 487]
> 500 nM	CCOC(=O)c1cccc(Nc2snc(O)c2C(=N)NC(C)C)c1 [compound 488]
> 500 nM	CCOC(=O)c1cccc(Nc2snc(O)c2C(=N)NC(C)CO)c1 (stereo not shown) [compound 489]
100 to 500 nM	Cc1cc(Oc2cccc(C(F)(F)F)c2)ccc1Nc1snc(O)c1C(=N)NC(CO)C(C)C (stereo not shown) [compound 492]
1 to 100 nM	COC(=O)c1ccccc1Oc1ccc(Nc2snc(O)c2C(=N)NC(C)CO)cc1 (stereo not shown) [compound 493]
1 to 100 nM	CCOC(=O)c1ccccc1Oc1ccc(Nc2snc(O)c2C(=N)NC(C)CO)cc1 (stereo not shown) [compound 494]
1 to 100 nM	CCOC(=O)c1ccc(Oc2ccc(Nc3snc(O)c3C(=N)NC(C)CO)cc2)cc1 (stereo not shown) [compound 497]
100 to 500 nM	CCOC(=O)c1cccc(Nc2snc(O)c2C(=N)NCC(O)O)c1 [compound 498]
100 to 500 nM	Cc1cc(Oc2cccc(F)c2F)ccc1Nc1snc(O)c1C(=N)N(O)C(C)C [compound 501]
100 to 500 nM	CCC(CO)NC(=N)c1c(O)nsc1Nc1ccc(Oc2cccc(F)c2F)cc1C (stereo not shown) [compound 504]
> 500 nM	CC(CO)NC(=N)c1c(O)nsc1Nc1ccc(-c2nc3ccccc3[nH]2)cc1 (stereo not shown) [compound 509]
> 500 nM	CC(O)CNC(=N)c1c(O)nsc1Nc1ccc(-c2nc3ccccc3[nH]2)cc1 (stereo not shown) [compound 510]
> 500 nM	N=C(NCCO)c1c(O)nsc1Nc1ccc(-c2nc3ccccc3[nH]2)cc1 [compound 511]
> 500 nM	N=C(NCC(O)CO)c1c(O)nsc1Nc1ccc(-c2nc3ccccc3[nH]2)cc1 (stereo not shown) [compound 512]

Same assay, conditions: Table 3, benzamides of formula X; read-out: IC 50

IC50	SMILES
100 to 500 nM	N=C(NCCO)c1c(O)nsc1Nc1ccc(C(=O)Nc2ccccc2)cc1 [drawing 809]
1 to 100 nM	CC(C)NC(=N)c1c(O)nsc1Nc1ccc(C(=O)Nc2ccccc2)cc1 [drawing 810]
> 500 nM	N=C(NCC1CCCCC1)c1c(O)nsc1Nc1ccc(C(=O)Nc2ccccc2)cc1 [drawing 811]
1 to 100 nM	CC(CO)NC(=N)c1c(O)nsc1Nc1ccc(C(=O)Nc2ccccc2)cc1 (stereo not shown) [drawing 812]

Same assay, conditions: Table 4, R' is (CH2)1 or 2-G; read-out: IC50

SMILES	IC50
Cc1ccc(Oc2ccc(Nc3snc(O)c3C(=N)NCC3CCCCC3)cc2)cn1 [drawing 824]	100 to 500 nM
Cc1ccc(Oc2ccc(Nc3snc(O)c3C(=N)NCC3CCCCC3)cn2)cn1 [drawing 825]	> 500 nM
N=C(NCC1CCCCC1)c1c(O)nsc1Nc1ccc(Sc2ccccc2)cc1 [drawing 826]	1 to 100 nM
N=C(NCCN1CCNCC1)c1c(O)nsc1Nc1ccc(Oc2cc(F)cc(F)c2)cc1 [drawing 829]	1 to 100 nM
N=C(NCCN1CCOCC1)c1c(O)nsc1Nc1ccc(Oc2cc(F)cc(F)c2)cc1 [drawing 830]	100 to 500 nM

Other lines, results leading:

IC50	SMILES
1 to 100 nM	Cc1ccc(Oc2ccc(Nc3snc(O)c3C(=N)NCC3CCCCC3)cc2)cc1 [drawing 823]
> 500 nM	N=C(NCC1CCCCC1)c1c(O)nsc1Nc1ccc(Oc2cncnc2)cc1 [drawing 827]
100 to 500 nM	N=C(NCC1CCCCC1)c1c(O)nsc1Nc1ccc(Oc2ccccc2)nc1 [drawing 828]
100 to 500 nM	N=C(NCC1CCCCC1)c1c(O)nsc1Nc1ccc(Sc2ccc([N+](=O)[O-])cc2)cc1 [drawing 831]
